Experimental data from patent US12427210B2, “Compounds comprising a fibroblast activation protein ligand and use thereof” (priority 2019, dated 2025).

Key:
Matrix metalloprotease1 = molecular target: T1, Matrix metalloprotease1 (Homo sapiens, UniProt P03956); conditions: 1 μM
T1 sequence (P03956 100-469): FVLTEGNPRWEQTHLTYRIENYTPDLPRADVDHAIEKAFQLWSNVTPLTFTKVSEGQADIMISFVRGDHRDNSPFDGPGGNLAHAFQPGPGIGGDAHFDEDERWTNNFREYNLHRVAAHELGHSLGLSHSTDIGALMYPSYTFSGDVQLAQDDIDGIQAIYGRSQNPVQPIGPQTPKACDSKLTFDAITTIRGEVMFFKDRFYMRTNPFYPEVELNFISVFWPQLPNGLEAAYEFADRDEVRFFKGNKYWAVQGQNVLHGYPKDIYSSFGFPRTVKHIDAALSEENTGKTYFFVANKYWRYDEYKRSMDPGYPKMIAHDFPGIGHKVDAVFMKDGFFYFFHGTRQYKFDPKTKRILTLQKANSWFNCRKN

Matrix metalloprotease 2 = molecular target: T2, Matrix metalloprotease 2 (Homo sapiens, UniProt P08253); conditions: 100 nM
T2 sequence (P08253 110-660): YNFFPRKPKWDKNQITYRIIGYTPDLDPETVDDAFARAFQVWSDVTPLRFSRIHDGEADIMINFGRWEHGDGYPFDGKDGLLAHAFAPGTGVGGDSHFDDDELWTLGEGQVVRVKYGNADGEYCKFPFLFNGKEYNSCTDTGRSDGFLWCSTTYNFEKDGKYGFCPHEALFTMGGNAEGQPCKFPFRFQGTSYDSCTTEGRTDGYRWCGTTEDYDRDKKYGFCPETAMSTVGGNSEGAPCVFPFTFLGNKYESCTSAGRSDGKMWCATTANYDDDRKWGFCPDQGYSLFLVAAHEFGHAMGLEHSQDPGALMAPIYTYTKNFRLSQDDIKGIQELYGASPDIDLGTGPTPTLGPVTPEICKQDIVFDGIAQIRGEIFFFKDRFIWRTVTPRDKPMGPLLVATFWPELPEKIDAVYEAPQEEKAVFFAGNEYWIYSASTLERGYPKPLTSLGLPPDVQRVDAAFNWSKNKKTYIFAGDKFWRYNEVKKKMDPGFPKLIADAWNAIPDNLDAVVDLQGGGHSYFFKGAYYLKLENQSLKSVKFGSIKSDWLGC

[1] = molecular target: T3, Matrix metalloprotease 9 (mutant Q279R) (Homo sapiens, UniProt P14780, Q279R); conditions: 100 nM
T3 sequence (P14780 94-707 Q279R): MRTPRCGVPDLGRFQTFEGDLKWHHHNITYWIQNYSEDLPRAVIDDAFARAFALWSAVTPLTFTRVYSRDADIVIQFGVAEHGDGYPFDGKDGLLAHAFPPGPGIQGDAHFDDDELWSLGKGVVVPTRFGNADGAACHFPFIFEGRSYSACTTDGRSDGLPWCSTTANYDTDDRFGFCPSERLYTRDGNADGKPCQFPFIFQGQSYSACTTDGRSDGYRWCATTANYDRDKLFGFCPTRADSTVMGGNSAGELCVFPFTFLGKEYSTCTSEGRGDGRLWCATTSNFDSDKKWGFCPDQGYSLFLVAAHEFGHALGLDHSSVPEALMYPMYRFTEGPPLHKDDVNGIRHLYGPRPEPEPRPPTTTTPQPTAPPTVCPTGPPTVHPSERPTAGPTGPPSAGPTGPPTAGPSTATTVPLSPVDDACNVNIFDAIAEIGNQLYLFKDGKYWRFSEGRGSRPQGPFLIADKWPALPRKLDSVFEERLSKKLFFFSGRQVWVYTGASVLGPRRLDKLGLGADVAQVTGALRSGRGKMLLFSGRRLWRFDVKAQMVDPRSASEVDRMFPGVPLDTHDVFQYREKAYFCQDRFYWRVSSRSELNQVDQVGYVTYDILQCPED

## COc1ccc(S(=O)(=O)N(CC(=O)NO)CC(C)C)cc1 [NNGH]
Matrix metalloprotease1
  Percentage inhibition (%), Reference: 87%
Matrix metalloprotease 2
  Percentage inhibition (%), Reference: 95%
[1]
  Percentage inhibition (%), Reference: 92%
